Data taken from PubChem BioAssay (NCI).
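Protocol summary: plate cells (96-well), add compound at 5 concentrations, incubate 48 h, interpolate endpoints linearly. TGI is the concentration that stops growth completely.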

Experiments:
Test in all cases: NCI tumour cell line growth inhibition, 48 h
T-47D breast = system: T-47D breast
PC-3 prostate = system: PC-3 prostate
MDA-MB-231 breast = system: MDA-MB-231 breast
MDA-N = system: MDA-N
P388 leukemia = system: P388 leukemia
HOP-18 NSCLC = system: HOP-18 NSCLC
SN12K1 renal = system: SN12K1 renal
P388/ADR leukemia = system: P388/ADR leukemia
RXF-631 renal = system: RXF-631 renal

Measured: TGI

CCC(C(=O)c1ccc(OC)c(OC)c1)N(C(=O)C(F)(F)F)C(C)c1ccccc1 (centres undefined)
> 100 µM: T-47D breast | PC-3 prostate | MDA-MB-231 breast | MDA-N

NC(N)=Nc1ncccc1[N+](=O)[O-]
> 100 µM: P388 leukemia | HOP-18 NSCLC | SN12K1 renal | P388/ADR leukemia

O=[N+]([O-])c1ccc(-c2ccc(-c3csc(Nc4ccccn4)n3)o2)cc1
> 100 µM: RXF-631 renal
